Earlier results on one compound are cited in patent US12016851B2, “Modified release pharmaceutical formulations comprising deferiprone” (Chiesi Farmaceutici S.p.A., priority 2022, dated 2024).

For data set [1] the following is noted: in vivo.
For data set [2] the following is noted: monotherapy; Maggio 2002, Galanello 2006.

With `Cc1c(O)c(=O)ccn1C` [Deferiprone, 3-hydroxy-1,2-dimethylpyridin-4-one], the half-life in data set [1] is 2 to 3 h. Also, the “improving myocardial siderosis and cardiac function” value in data set [2] was “superior to deferoxamine monotherapy”.

One may read the half-life as how long it takes for the measured level to halve.
